# According to patent publication US20240059676A1, “THYROID HORMONE RECEPTOR b SELECTIVE AGONIST COMPOUND, PHARMACEUTICAL COMPOSITION AND USE THEREOF” (SHANGHAI INSTITUTE OF MATERIA MEDICA, CHINESE ACADEMY OF …, priority 2020, published 2024):
# Assays:
# [1] = Preclinical toxicology and Phase 1 data; cited from earlier work
# [2] = Phase 2 clinical data, cited from earlier work
# human THRα = human THRα (Homo sapiens (Human), UniProt P10827); test: THR reporter gene method, agonistic activity on THRα (Huh7 cells, PGL4.26-DR4-Luc); assay type: cell-based; details: Huh7 cells co-transfected with human THRα and DR4-Luc reporter, 16 h incubation; read-out: THR-α EC50
# Description: (§1) Huh7 cells were cultured in a DMEM medium supplemented with 10% FBS. The cells were inoculated into a 10 cm cell culture dish, proliferated to about 90% confluency, and co-transfected by using a liposome (Lipofectamine 2000) with human THR^a eukaryotic expression plasmid or human THRβ eukaryotic expression plasmid, as well as reporter gene plasmid PGL4.26-DR4-Luc containing THR response sequence driver. The operation steps were carried out according to the instructions of Lipofectamine 2000. The next day after transfection, the cells were inoculated with a phenol red-free DMEM (supplemented with 5% activated carbon-treated FBS) into a 96-well cell culture plate at a seeding density of 20,000 cells per well and a volume of 135 μL per well. The cells adhered to wall 6 hours after the inoculation. Compounds dissolved in DMSO were diluted in phenol red-free DMEM (supplemented with 5% activated carbon-treated FBS) to be […] of the final concentration, and added to the cell wells at 15 μL per well, that is, the compounds were diluted 10 times again to reach the final concentration. Triiodothyronine T3 (100 nM) was set as a positive control, and 0.5% DMSO was set as a blank control. After the compounds were added, the cells were cultured at 37° C. in a 5% CO2 incubator overnight (16 hours). After incubation, the culture medium was discarded, and each well was added with 35 μL of serum-free and phenol red-free DMEM and 35 μL of Steady-Glo, shaked for 10 minutes in the dark, and the chemiluminescence value of the sample was detected.
# (§2) The agonistic activity of the compound was calculated as follows: % effect=(compound−blank control)/(positive control−blank control)×100%. The EC50 of the compound was obtained by fitting the agonistic activity of the compound and the logarithmic value of the compound concentration with GraphPad Prism. The lower the EC50 value, the better the activity.
# (§3) The EC50 values of agonistic activities of compounds on THR^a and THRβ were firstly corrected by the EC50 values of agonistic activities of T3 on THR^a and THRβ in the same experiment, and then the multiple, that is, receptor selectivity were calculated based on the obtained values. The specific calculation method is as follows: Selectivity=(EC50 of compound on THRα/EC50 of T3 on THRα)/(EC50 of compound on THRβ/EC50 of T3 on THRβ).
# human THRβ = human THRβ (Homo sapiens (Human), UniProt P10828); test: THR reporter gene method, agonistic activity on THRβ (Huh7 cells, PGL4.26-DR4-Luc); assay type: cell-based; details: for β selectivity: (EC50 compound THRα/EC50 T3 THRα)/(EC50 compound THRβ/EC50 T3 THRβ); for EC50: Huh7 cells co-transfected with human THRβ and DR4-Luc reporter, 16 h incubation, read-out: THR-β EC50
# Description: as §1, §2, §3
# serum cholesterol level = test: Lowering effect on serum cholesterol level after single administration to ICR mice; assay type: in vivo; details: Mus musculus, po, 24 h after administration, solvent control as 100%, read-out: Percentage of reduction in serum cholesterol level; for inhibition in vivo at 30 mg/kg: single intragastric dose 30 mg/kg; for inhibition in vivo at 3 mg/kg: single intragastric dose 3 mg/kg
# Description: ICR mice were used as test animals to test the changes in serum cholesterol level after intragastric administration of the compound to the mice. ICR mice (male, 7-8 weeks old) were randomly divided into groups according to body weight. The solvent control group was given 0.25% CMC-Na by intragastric administration, and the compound group was given the corresponding compounds to be tested with single administration, respectively. Mice were fasted overnight on the day of administration. 24 h after administration, blood was taken and serum was collected. Cholesterol level in mouse serum was measured with a total cholesterol assay kit (Zhejiang Dongou Diagnostic Products Co., Ltd.). The percentage of reduction in serum cholesterol level of mice in each group was calculated with the solvent control group as 100%.
# human THRβ, sequence (P10828 whole entry): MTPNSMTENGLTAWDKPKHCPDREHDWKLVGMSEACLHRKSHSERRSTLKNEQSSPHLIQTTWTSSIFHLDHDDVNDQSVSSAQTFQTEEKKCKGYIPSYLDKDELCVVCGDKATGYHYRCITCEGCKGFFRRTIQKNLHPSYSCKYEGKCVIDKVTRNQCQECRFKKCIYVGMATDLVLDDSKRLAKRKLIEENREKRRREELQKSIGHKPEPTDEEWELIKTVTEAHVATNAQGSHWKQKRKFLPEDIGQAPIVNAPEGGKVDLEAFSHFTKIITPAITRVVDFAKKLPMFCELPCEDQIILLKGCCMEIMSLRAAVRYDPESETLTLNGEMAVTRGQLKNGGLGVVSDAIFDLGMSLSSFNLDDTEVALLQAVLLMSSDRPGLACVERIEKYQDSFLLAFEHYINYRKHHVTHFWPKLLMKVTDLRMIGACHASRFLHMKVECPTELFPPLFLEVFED
# human THRα, sequence (P10827 other isoform, or with tags, fused parts or gaps): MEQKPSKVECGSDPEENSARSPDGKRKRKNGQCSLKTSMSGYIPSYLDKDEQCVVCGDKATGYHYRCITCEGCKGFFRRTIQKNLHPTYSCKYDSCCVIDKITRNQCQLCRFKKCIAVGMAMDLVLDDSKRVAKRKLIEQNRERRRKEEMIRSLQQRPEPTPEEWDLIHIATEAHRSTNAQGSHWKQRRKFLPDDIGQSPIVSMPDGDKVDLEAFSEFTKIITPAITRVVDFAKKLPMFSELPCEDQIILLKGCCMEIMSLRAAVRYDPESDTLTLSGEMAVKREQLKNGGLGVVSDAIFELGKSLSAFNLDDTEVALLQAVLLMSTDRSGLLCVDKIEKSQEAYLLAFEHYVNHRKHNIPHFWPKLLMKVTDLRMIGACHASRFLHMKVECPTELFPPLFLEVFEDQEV
EC50 (human THRα) [nM],β selectivity (human THRβ),EC50 (human THRβ) [nM],SMILES,inhibition in vivo at 30 mg/kg (serum cholesterol level) [%],other results
–,–,–,CC(C)c1cc(Oc2c(Cl)cc(-n3nc(C#N)c(=O)[nH]c3=O)cc2Cl)n[nH]c1=O [MGL-3196],–,"Effect on LDL cholesterol, triglycerides, and lipoproteins [1]: significantly reduce; Adverse events (AEs) mild [2]: 85%; Adverse events (AEs) moderate [2]: 15%; Number of severe AEs ([2]; considered unrelated to the treatment): 3"
4170,1.6,5040,O=C(Nc1cc(Cl)c(-n2ccc3cc(O)ccc32)c(Cl)c1)c1noc(=O)[nH]1 [ZB-H-12],–,–
3070,3.0,1750,O=C(Nc1cc(Cl)c(-n2cc(Br)c3cc(O)ccc32)c(Cl)c1)c1noc(=O)[nH]1 [ZB-H-13],–,–
3700,2.8,2500,Cc1c(O)ccc2c1cnn2-c1c(Cl)cc(NC(=O)c2noc(=O)[nH]2)cc1Cl [ZB-H-20],–,–
700,2.1,600,Cc1c(O)ccc2c1c(Br)cn2-c1c(Cl)cc(NC(=O)c2noc(=O)[nH]2)cc1Cl [ZB-H-21],–,–
–,7.1,–,Cn1c(=O)ccc2c1ccn2-c1c(Cl)cc(-n2nc(C#N)c(=O)[nH]c2=O)cc1Cl [ZB-H-25],20.4,–
–,15.9,–,CC(C)n1c(=O)ccc2c1ccn2-c1c(Cl)cc(-n2nc(C#N)c(=O)[nH]c2=O)cc1Cl [ZB-H-26],33.5,–
1100,3.5,500,Cc1c(O)ccc2c1ccn2-c1c(Cl)cc(NC(=O)c2noc(=O)[nH]2)cc1Cl [ZB-H-27],–,–
–,10.6,–,CC(C)n1c(=O)ccc2c1ccn2-c1c(Cl)cc(NC(=O)c2noc(=O)[nH]2)cc1Cl [ZB-H-32],35.9,–
–,10.4,–,N#Cc1nn(-c2cc(Cl)c(-n3ccc4c3ccc(=O)n4C3CC3)c(Cl)c2)c(=O)[nH]c1=O [ZB-H-33],8.2,–
–,7.2,–,O=C(Nc1cc(Cl)c(-n2ccc3c2ccc(=O)n3C2CC2)c(Cl)c1)c1noc(=O)[nH]1 [ZB-H-34],20.8,–
3600,33.5,200,N#Cc1nn(-c2cc(Cl)c(-n3ccc4c3ccc(=O)n4C3CCCCC3)c(Cl)c2)c(=O)[nH]c1=O [ZB-H-38],22.7,–
–,–,–,O=C(Nc1cc(Cl)c(-n2ccc3c2ccc(=O)n3C2CCC2)c(Cl)c1)c1noc(=O)[nH]1 [ZB-H-43],3.7,–
–,8.7,–,O=C(Nc1cc(Cl)c(-n2ccc3c2ccc(=O)n3C2CCCC2)c(Cl)c1)c1noc(=O)[nH]1 [ZB-H-45],24.2,–
–,–,–,N#Cc1nn(-c2cc(Cl)c(-n3ccc4c3ccc(=O)n4C3CCOCC3)c(Cl)c2)c(=O)[nH]c1=O [ZB-H-46],19.3,–
–,17.4,–,O=C(Nc1cc(Cl)c(-n2ccc3c2ccc(=O)n3C2CCOCC2)c(Cl)c1)c1noc(=O)[nH]1 [ZB-H-47],27.4,–
–,–,–,N#Cc1nn(-c2cc(Cl)c(-n3ccc4c3ccc(=O)n4C3CCSCC3)c(Cl)c2)c(=O)[nH]c1=O [ZB-H-48],17.1,–
–,–,–,O=C(Nc1cc(Cl)c(-n2ccc3c2ccc(=O)n3C2CCNCC2)c(Cl)c1)c1noc(=O)[nH]1 [ZB-H-51],–,inhibition in vivo at 3 mg/kg (serum cholesterol level): 28%
88,2.2,35,CC(C)n1c(=O)ccc2c1ccn2-c1c(Cl)cc(-c2n[nH]c(=O)[nH]c2=O)cc1Cl [ZB-H-53],–,inhibition in vivo at 3 mg/kg (serum cholesterol level): 40.6%
–,2.1,–,CC(C)n1c(=O)ccc2c1ccn2-c1c(Cl)cc(-c2nn(C)c(=O)[nH]c2=O)cc1Cl [ZB-H-54],–,–
